From BigSolDB 2.1

SMILES	solubility (mole fraction) (in 1,4-dioxane, 273.15 K)	solubility (mole fraction) (in 1,4-dioxane, 278.15 K)	solubility (mole fraction) (in 1,4-dioxane, 283.15 K)	solubility (mole fraction) (in 1,4-dioxane, 288.15 K)	solubility (mole fraction) (in 1,4-dioxane, 293.15 K)	solubility (mole fraction) (in 1,4-dioxane, 298.15 K)	solubility (mole fraction) (in 1,4-dioxane, 303.15 K)	solubility (mole fraction) (in 1,4-dioxane, 308.15 K)	solubility (mole fraction) (in 1,4-dioxane, 313.15 K)	solubility (mole fraction) (in acetone, 273.15 K)	solubility (mole fraction) (in acetone, 278.15 K)	solubility (mole fraction) (in acetone, 283.15 K)	solubility (mole fraction) (in acetone, 288.15 K)	solubility (mole fraction) (in acetone, 293.15 K)	solubility (mole fraction) (in acetone, 298.15 K)	solubility (mole fraction) (in acetone, 303.15 K)	solubility (mole fraction) (in acetone, 308.15 K)	solubility (mole fraction) (in acetone, 313.15 K)	solubility (mole fraction) (in ethyl acetate, 273.15 K)	solubility (mole fraction) (in ethyl acetate, 278.15 K)	other results
O=C1c2ccccc2C(=O)c2c(Cl)cccc21	0.00323	0.00373	0.00412	0.00469	0.00547	0.00607	0.00691	0.00775	0.00896	0.00272	0.00308	0.00336	0.00388	0.00448	0.00531	0.00611	0.00692	0.00767	0.00335	0.00387	solubility (mole fraction) (in ethyl acetate, 283.15 K): 0.00459; solubility (mole fraction) (in ethyl acetate, 288.15 K): 0.00531; solubility (mole fraction) (in ethyl acetate, 293.15 K): 0.00605; solubility (mole fraction) (in ethyl acetate, 298.15 K): 0.0069; solubility (mole fraction) (in ethyl acetate, 303.15 K): 0.00795; solubility (mole fraction) (in ethyl acetate, 308.15 K): 0.00913; solubility (mole fraction) (in ethyl acetate, 313.15 K): 0.0106; solubility (mole fraction) (in toluene, 273.15 K): 0.00918; solubility (mole fraction) (in toluene, 278.15 K): 0.01; solubility (mole fraction) (in toluene, 283.15 K): 0.0112; solubility (mole fraction) (in toluene, 288.15 K): 0.0122; solubility (mole fraction) (in toluene, 293.15 K): 0.0132; solubility (mole fraction) (in toluene, 298.15 K): 0.0146; solubility (mole fraction) (in toluene, 303.15 K): 0.016; solubility (mole fraction) (in toluene, 308.15 K): 0.0175; solubility (mole fraction) (in toluene, 313.15 K): 0.019
O=C(O)c1cccc(Cl)c1C(=O)c1ccccc1	0.0192	0.021	0.0231	0.0254	0.0281	0.0309	0.034	0.0373	0.0413	0.00169	0.00183	0.00204	0.00225	0.00258	0.00281	0.00308	0.00349	0.00385	0.00545	0.00599	solubility (mole fraction) (in 1,4-dioxane, 318.15 K): 0.0462; solubility (mole fraction) (in acetone, 318.15 K): 0.00432; solubility (mole fraction) (in ethyl acetate, 283.15 K): 0.00692; solubility (mole fraction) (in ethyl acetate, 288.15 K): 0.00811; solubility (mole fraction) (in ethyl acetate, 293.15 K): 0.00959; solubility (mole fraction) (in ethyl acetate, 298.15 K): 0.011; solubility (mole fraction) (in ethyl acetate, 303.15 K): 0.0128; solubility (mole fraction) (in ethyl acetate, 308.15 K): 0.0146; solubility (mole fraction) (in ethyl acetate, 313.15 K): 0.0172; solubility (mole fraction) (in ethyl acetate, 318.15 K): 0.0197
